Data from patent US11472803B2, “7-substituted 1-aryl-naphthyridine-3-carboxylic acid amides and use thereof” (Bayer Aktiengesellschaft, priority 2016, dated 2022).

Target: T1, human M2 receptor (Homo sapiens, UniProt P08172)
T1 construct: expressed in transfected cells; host or cells: CHO-DUKX (CHO-DUKX-M2-GIRK)
T1 sequence (P08172 1-466): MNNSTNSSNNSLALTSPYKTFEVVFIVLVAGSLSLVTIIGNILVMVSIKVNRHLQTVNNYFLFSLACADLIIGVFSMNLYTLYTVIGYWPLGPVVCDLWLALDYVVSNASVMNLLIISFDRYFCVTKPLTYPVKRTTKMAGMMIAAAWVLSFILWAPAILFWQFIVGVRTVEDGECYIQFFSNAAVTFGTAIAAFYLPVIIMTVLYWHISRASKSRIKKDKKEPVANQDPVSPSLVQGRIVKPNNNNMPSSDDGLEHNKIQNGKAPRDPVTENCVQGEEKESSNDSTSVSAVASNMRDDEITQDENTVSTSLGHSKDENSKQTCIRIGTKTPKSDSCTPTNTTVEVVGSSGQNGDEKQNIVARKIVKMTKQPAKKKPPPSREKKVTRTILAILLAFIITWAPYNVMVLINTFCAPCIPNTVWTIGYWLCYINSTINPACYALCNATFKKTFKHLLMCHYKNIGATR
Experiment: Functional M2-GIRK1/4 activation test: allosteric potency (EC50) and efficiency at EC20 acetylcholine
Type: cell-based
Settings: CHO-DUKX-M2-GIRK cells; for EC50: voltage-sensitive dye, acetylcholine at EC20, in some cases mean of two or more determinations; for Emax: boosting of the acetylcholine effect at EC20 acetylcholine concentration
Excerpt: The binding of orthosteric agonists (endogenous ligand: acetylcholine) to the M2 receptor leads to receptor activation or a change in conformation of the receptor in the manner of a shift in equilibrium in favour of the active receptor conformation.
The agonist-induced change in conformation of the M2 receptor results in a Gαi protein activation. […] Under physiological conditions, the result is then a selective efflux of potassium from the cell along the electrochemical gradient. […] The extent of hyperpolarization can therefore be regarded as a measure of the activation of the M2 receptor.
The test cell used is a recombinant CHO-DUKX cell line which has been stably transfected with cDNA coding for the human M2 receptor and with cDNA coding for both GIRK1/4 subunits (CHO-DUKX-M2-GIRK). The transmembrane potential, or the relative changes in the transmembrane potential as a function of substance addition or M2 activation, is determined by means of a voltage-sensitive dye (FLIPR Membrane Potential Assay Kit Blue, Molecular Devices #R8034) and the measurement of cell fluorescence using a proprietary fluorescence imaging instrument.
The sowing medium consisted of MEM alpha medium (supplemented with 5% PCS, 2% Glutamax, no genticin).
For the particular measurement, the medium was removed and the cells were laden with the volt-age-sensitive dye for at least 6 min at room temperature (30 μl of loading buffer per 384-well). This was followed, in a first measurement, by the determination of the fluorescence for the resting transmembrane potential for a period of 5 sec. Thereafter, 10 μl in each case of the test substances diluted in loading buffer were added, followed by a second measurement to determine the transmembrane potential for a period of 50 sec in 1 sec increments. Finally, the cells were admixed with 10 μl of agonist solution (acetylcholine dissolved in loading buffer). Acetylcholine was used at the concentration corresponding to the EC20, which had been determined in a preliminary test. The M2-mediated GIRK1/4 activation or hyperpolarization was then monitored in a third measurement over a period of 60 sec. The EC50 value (degree of allosteric potency of test compound) and the efficiency (measure of the boosting of the acetylcholine effect at an EC20 acetylcholine concentration) were determined with the aid of a 4-parameter logistic function (Hill function).

CCC(NC(=O)c1cn(-c2c(F)cc(F)cc2F)c2nc(N3C[C@@H](O)[C@H](O)C3)c(Br)cc2c1=O)C(F)(F)C(F)(F)F (mixture of isomers) [Example 157, 6-Bromo-7-[(3R,4R)-3,4-dihydroxypyrrolidin-1-yl]-4-oxo-N-[1,1,1,2,2-pentafluoropentan-3-yl]-1-(2,4,6-trifluorophenyl)-1,4-dihydro-1,8-naphthyridine-3-carboxamide]
EC50: 2.6 nM
Emax: 100%

CC(C)(NC(=O)c1cn(-c2c(F)cc(F)cc2Cl)c2nc(N3C[C@@H](O)[C@H](O)C3)c(F)cc2c1=O)C(F)F [Example 141, 1-(2-Chloro-4,6-difluorophenyl)-N-(1,1-difluoro-2-methylpropan-2-yl)-7-[(3R,4R)-3,4-dihydroxypyrrolidin-1-yl]-6-fluoro-4-oxo-1,4-dihydro-1,8-naphthyridine-3-carboxamide]
EC50: 3.4 nM
Emax: 97%

CC(C)(C)C(NC(=O)c1cn(-c2c(F)cc(F)cc2F)c2nc(N3CC(CO)(CO)C3)c(F)cc2c1=O)C(F)(F)C(F)(F)F (single isomer, unassigned) [Example 214, 7-[3,3-bis(hydroxymethyl)azetidin-1-yl]-6-fluoro-4-oxo-N-[1,1,1,2,2-pentafluoro-4,4-dimethylpentan-3-yl]-1-(2,4,6-trifluorophenyl)-1,4-dihydro-1,8-naphthyridine-3-carboxamide]
EC50: 2.1 nM
Emax: 100%

O=C(NC(C(F)(F)F)C(F)(F)F)c1cn(-c2c(F)cc(F)cc2F)c2nc(N3CCC(CO)(CO)CC3)c(F)cc2c1=O [Example 191, 7-[4,4-bis(hydroxymethyl)piperidin-1-yl]-6-fluoro-N-(1,1,1,3,3,3-hexafluoropropan-2-yl)-4-oxo-1-(2,4,6-trifluorophenyl)-1,4-dihydro-1,8-naphthyridine-3-carboxamide]
EC50: 48 nM
Emax: 100%

CC[C@H](NC(=O)c1cn(-c2c(F)cc(F)cc2Cl)c2nc(N3C[C@@H](O)[C@H](O)C3)c(F)cc2c1=O)C(F)(F)F [Example 40, 1-(2-chloro-4,6-difluorophenyl)-7-[(3R,4R)-3,4-dihydroxypyrrolidin-1-yl]-6-fluoro-4-oxo-N-[(2S)-1,1,1-trifluorobutan-2-yl]-1,4-dihydro-1,8-naphthyridine-3-carboxamide]
EC50: 2.3 nM
Emax: 98%

C[C@@H](NC(=O)c1cn(-c2c(F)cc(F)cc2Cl)c2nc(N3C[C@@H](O)[C@H](O)C3)c(F)cc2c1=O)C(F)(F)F [Example 227, 1-(2-Chloro-4,6-difluorophenyl)-7-[(3R,4R)-3,4-dihydroxypyrrolidin-1-yl]-6-fluoro-4-oxo-N-[(2R)-1,1,1-trifluoropropan-2-yl]-1,4-dihydro-1,8-naphthyridine-3-carboxamide]
EC50: 11 nM
Emax: 94%

CCC(NC(=O)c1cn(-c2c(F)cc(F)cc2F)c2nc(N3C[C@@H](O)[C@H](O)C3)c(F)cc2c1=O)C(C)C (mixture of isomers) [Example 28, 7-[(3R,4R)-3,4-Dihydroxypyrrolidin-1-yl]-6-fluoro-N-(2-methylpentan-3-yl)-4-oxo-1-(2,4,6-trifluorophenyl)-1,4-dihydro-1,8-naphthyridine-3-carboxamide]
EC50: 3.15 nM
Emax: 100%

CCC(CC)(CC)NC(=O)c1cn(-c2c(F)cc(F)cc2F)c2nc(N3C[C@@H](O)[C@H](O)C3)c(F)cc2c1=O [Example 87, 7-[(3R,4R)-3,4-Dihydroxypyrrolidin-1-yl]-N-(3-ethylpentan-3-yl)-6-fluoro-4-oxo-1-(2,4,6-tri-fluorophenyl)-1,4-dihydro-1,8-naphthyridine-3-carboxamide]
EC50: 1.4 nM
Emax: 100%

CC(NC(=O)c1cn(-c2c(F)cc(F)cc2F)c2nc(N3C[C@@H](O)[C@@H](O)C3)c(F)cc2c1=O)C(F)(F)C(F)(F)F (mixture of isomers) [Example 92, 7-[(3R,4S)-3,4-Dihydroxypyrrolidin-1-yl]-6-fluoro-4-oxo-N-[3,3,4,4,4-pentafluorobutan-2-yl]-1-(2,4,6-trifluorophenyl)-1,4-dihydro-1,8-naphthyridine-3-carboxamide]
Emax: 100%

CC(NC(=O)c1cn(-c2c(F)cc(F)cc2F)c2nc(N3CCC4(C3)NC(=O)NC4=O)c(F)cc2c1=O)C(F)(F)C(F)(F)F (stereo not shown) [Example 235, 7-(2,4-Dioxo-1,3,7-triazaspiro[4.4]non-7-yl)-6-fluoro-4-oxo-N-[3,3,4,4,4-pentafluorobutan-2-yl]-1-(2,4,6-trifluorophenyl)-1,4-dihydro-1,8-naphthyridine-3-carboxamide]
EC50: 4 nM
Emax: 92%

C[C@H](NC(=O)c1cn(-c2c(F)cc(F)cc2F)c2nc(N3C[C@@H](O)[C@H](O)C3)c(F)cc2c1=O)C1CC1 [Example 20, N-[(1S)-1-cyclopropylethyl]-7-[(3R,4R)-3,4-dihydroxypyrrolidin-1-yl]-6-fluoro-4-oxo-1-(2,4,6-trifluorophenyl)-1,4-dihydro-1,8-naphthyridine-3-carboxamide]
EC50: 13 nM
Emax: 92%

O=C(NC(c1ccccc1Cl)C(F)(F)F)c1cn(-c2ccc(F)cc2F)c2ncc(Cl)cc2c1=O (racemic) [Example 134, 6-Chloro-N-[1-(2-chlorophenyl)-2,2,2-trifluoroethyl]-1-(2,4-difluorophenyl)-4-oxo-1,4-dihydro-1,8-naphthyridine-3-carboxamide]
EC50: 1830 nM
Emax: 55%

CC(C)(C)NC(=O)c1cn(-c2c(F)cc(F)cc2Cl)c2nc(N3C[C@@H](O)[C@H](O)C3)c(F)cc2c1=O [Example 74, N-tert-Butyl-1-(2-chloro-4,6-difluorophenyl)-7-[(3R,4R)-3,4-dihydroxypyrrolidin-1-yl]-6-fluoro-4-oxo-1,4-dihydro-1,8-naphthyridine-3-carboxamide]
EC50: 3.9 nM
Emax: 95%

CC(C)(C)C(NC(=O)c1cn(-c2c(F)cc(F)cc2F)c2nc(N3CC4(COC4)C3)c(F)cc2c1=O)C(F)(F)C(F)(F)F (single isomer, unassigned) [Example 213, 6-Fluoro-7-(2-oxa-6-azaspiro[3.3]hept-6-yl)-4-oxo-N-[1,1,1,2,2-pentafluoro-4,4-dimethylpentan-3-yl]-1-(2,4,6-trifluorophenyl)-1,4-dihydro-1,8-naphthyridine-3-carboxamide]
EC50: 13 nM
Emax: 100%

CN(CCO)c1nc2c(cc1F)c(=O)c(C(=O)N[C@@H](C1CC1)C(F)(F)F)cn2-c1c(F)cc(F)cc1F [Example 55, N-[(1S)-1-Cyclopropyl-2,2,2-trifluoroethyl]-6-fluoro-7-[(2-hydroxyethyl)(methyl)amino]-4-oxo-1-(2,4,6-trifluorophenyl)-1,4-dihydro-1,8-naphthyridine-3-carboxamide]
EC50: 25 nM
Emax: 96%

CC(NC(=O)c1cn(-c2c(F)cc(F)cc2F)c2nc(N3CC[C@H](O)[C@@H]3CO)c(F)cc2c1=O)C(F)(F)C(F)(F)F (single isomer, unassigned) [Example 194]
EC50: 31.5 nM
Emax: 94%

O=C(N[C@@H](C1CC1)C(F)(F)F)c1cn(-c2c(F)cc(F)cc2Cl)c2nc(N3CC(CO)(CO)C3)c(F)cc2c1=O (single isomer, unassigned) [Example 70]
EC50: 100 nM
Emax: 86%

CC1(O)CN(c2nc3c(cc2F)c(=O)c(C(=O)NC(C2CC2)C2CC2)cn3-c2ncc(F)cc2F)C1 [Example 56, N-(Dicyclopropylmethyl)-1-(3,5-difluoropyridin-2-yl)-6-fluoro-7-(3-hydroxy-3-methylazetidin-1-yl)-4-oxo-1,4-dihydro-1,8-naphthyridine-3-carboxamide]
EC50: 35 nM
Emax: 100%

COC[C@@H](NC(=O)c1cn(-c2c(F)cc(F)cc2F)c2nc(N3C[C@@H](O)[C@H](O)C3)c(F)cc2c1=O)C(C)C [Example 17, 7-[(3R,4R)-3,4-dihydroxypyrrolidin-1-yl]-6-fluoro-N-[(2S)-1-methoxy-3-methylbutan-2-yl]-4-oxo-1-(2,4,6-trifluorophenyl)-1,4-dihydro-1,8-naphthyridine-carboxamide]
EC50: 79.5 nM
Emax: 83%
